# Test results from article PMC10734437, “Differential inhibition of intra- and inter-molecular protease cleavages by antiviral compounds” (Journal of Virology, 2023).
# pIC50: −log10 of the molar value. Where two headings read alike, the source gives them in different places. Residues, ends and D or L forms follow the SMILES beside them. *: point of attachment. Cbz = O=C(OCc1ccccc1)*; CH2F = FC*
# Tests used:
# [1] = biological target: EV-D68 3C protease (Human enterovirus D68, UniProt Q68T42); assay type: biochemical
# Chain of EV-D68 3C protease (Q68T42 1438-1731 limits assumed): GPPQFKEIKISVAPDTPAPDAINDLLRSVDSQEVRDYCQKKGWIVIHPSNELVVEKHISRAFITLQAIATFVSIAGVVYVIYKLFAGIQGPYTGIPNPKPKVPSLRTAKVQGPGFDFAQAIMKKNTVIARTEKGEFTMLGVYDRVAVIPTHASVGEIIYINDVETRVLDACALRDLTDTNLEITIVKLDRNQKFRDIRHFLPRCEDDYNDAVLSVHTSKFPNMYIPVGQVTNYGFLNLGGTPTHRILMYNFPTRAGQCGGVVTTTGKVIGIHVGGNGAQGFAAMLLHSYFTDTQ
# [2] = biological target: poliovirus 3C protease (Poliovirus type 1, UniProt P03300); test: biochemical; assay type: biochemical
# Chain of poliovirus 3C protease (P03300 1457-1748 limits assumed): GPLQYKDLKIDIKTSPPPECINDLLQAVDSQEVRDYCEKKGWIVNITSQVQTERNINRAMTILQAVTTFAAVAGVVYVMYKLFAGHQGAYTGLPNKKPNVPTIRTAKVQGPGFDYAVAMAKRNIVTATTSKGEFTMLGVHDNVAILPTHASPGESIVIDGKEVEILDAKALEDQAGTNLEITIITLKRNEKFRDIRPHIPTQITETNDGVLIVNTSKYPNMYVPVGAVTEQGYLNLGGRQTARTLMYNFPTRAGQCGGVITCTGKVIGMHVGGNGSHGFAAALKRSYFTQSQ
# [3] = biological target: T1, EV-D68 2A protease (Human enterovirus D68, UniProt A0A097BW12); test: EV-D68 VP1·2A self-processing (intra-molecular cleavage) in translation extracts; assay type: biochemical
# T1 sequence (A0A097BW12 862-1008): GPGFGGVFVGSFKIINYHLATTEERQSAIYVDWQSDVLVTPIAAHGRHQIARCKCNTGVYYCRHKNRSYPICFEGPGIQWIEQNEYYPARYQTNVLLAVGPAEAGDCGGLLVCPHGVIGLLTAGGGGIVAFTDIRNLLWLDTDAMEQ
# [4] = biological target: T1, EV-D68 2A protease; test: biochemical; assay type: biochemical
# [5] = biological target: T2, EV-D68 2A N84T mutant (Human enterovirus D68, UniProt Q68T42, N945T); test: EV-D68 VP1·2A N84T (telaprevir resistant mutant) self-processing, pulse chase in translation extracts; assay type: biochemical
# T2 sequence (Q68T42 553-1008 N945T): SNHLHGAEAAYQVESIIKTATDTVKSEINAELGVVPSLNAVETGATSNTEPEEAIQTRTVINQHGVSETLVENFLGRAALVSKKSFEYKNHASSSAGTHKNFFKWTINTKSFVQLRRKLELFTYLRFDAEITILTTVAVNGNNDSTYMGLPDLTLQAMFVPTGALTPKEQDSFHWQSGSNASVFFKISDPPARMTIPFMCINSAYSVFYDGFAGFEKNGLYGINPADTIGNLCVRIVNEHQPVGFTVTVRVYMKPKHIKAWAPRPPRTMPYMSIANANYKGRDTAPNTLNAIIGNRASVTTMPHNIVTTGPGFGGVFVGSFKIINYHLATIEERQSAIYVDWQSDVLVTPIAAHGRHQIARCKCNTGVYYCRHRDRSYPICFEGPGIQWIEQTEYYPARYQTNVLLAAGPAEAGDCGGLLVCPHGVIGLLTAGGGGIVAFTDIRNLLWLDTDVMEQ
# [6] = biological target: T3, poliovirus 2A protease (Poliovirus type 1, UniProt P03300)
# Target sequence in this assay (P03300 580-1030 limits assumed): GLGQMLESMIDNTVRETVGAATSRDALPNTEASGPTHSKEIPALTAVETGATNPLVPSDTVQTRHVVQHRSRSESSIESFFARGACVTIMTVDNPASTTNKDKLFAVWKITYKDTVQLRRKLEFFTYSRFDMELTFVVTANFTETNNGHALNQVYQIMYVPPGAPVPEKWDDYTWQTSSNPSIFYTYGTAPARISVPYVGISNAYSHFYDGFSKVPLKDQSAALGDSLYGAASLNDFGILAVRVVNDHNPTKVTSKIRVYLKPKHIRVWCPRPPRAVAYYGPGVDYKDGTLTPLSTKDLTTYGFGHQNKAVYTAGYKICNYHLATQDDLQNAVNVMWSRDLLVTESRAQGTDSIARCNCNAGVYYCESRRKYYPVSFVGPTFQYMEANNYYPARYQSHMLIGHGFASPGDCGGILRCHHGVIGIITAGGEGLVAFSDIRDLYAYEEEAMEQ
# [7] = biological target: T3, poliovirus 2A protease; conditions: read-out: IC50, eIF4G (inter-molecular) cleavage by poliovirus 2A
# Target sequence in this assay (P03300 882-1030 limits assumed): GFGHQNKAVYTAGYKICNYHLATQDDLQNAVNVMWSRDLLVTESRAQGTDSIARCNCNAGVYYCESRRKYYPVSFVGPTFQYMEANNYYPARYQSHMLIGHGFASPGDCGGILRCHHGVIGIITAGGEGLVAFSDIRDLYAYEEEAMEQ
# [8] = test system: rhinovirus protease; conditions: cited from earlier work
structure (smiles),measurement,setting,value
CCOC(=O)/C=C/[C@H](C[C@@H]1CCNC1=O)NC(=O)[C@@H](CC(=O)[C@@H](NC(=O)c1cc(C)on1)C(C)C)Cc1ccc(F)cc1 [Rupintrivir],"inhibition of EV-D68 3ABC processing, concentration curve",[1],near-complete inhibition
same,"inhibition of self-processing, EV-D68 intra-molecular 3ABC processing, pulse chase",[1],~100%
same,"inhibition of poliovirus 3ABC processing, concentration curve",[2],near-complete inhibition
same,"inhibition of self-processing, poliovirus inter-molecular 3ABC processing, pulse chase",[2],~100%
same,pIC50,"[2]; IC50, Poliovirus 3ABC (inter-molecular) cleavage",6.12
same,pIC50,"[2]; IC50, inter-molecular cleavage of poliovirus 3ABC",~6.12
CCC[C@H](NC(=O)[C@@H]1[C@H]2CCC[C@H]2CN1C(=O)[C@@H](NC(=O)[C@@H](NC(=O)c1cnccn1)C1CCCCC1)C(C)(C)C)C(=O)C(=O)NC1CC1 [Telaprevir],"rate of VP1·2A self-processing, pulse chase, WT construct",[3]; 1 µM telaprevir,significantly decreased
same,inhibition of intra-molecular processing of VP1·2A,"[3]; 1-µM telaprevir, maximum concentration testable",20%
same,fold higher IC50 for intra-molecular VP1·2A cleavage than for inter-molecular eIF4G cleavage,[3]; EV-D68 2A,more than 20 fold
same,pIC50,"[3]; approximate, translation extracts, drug added at initiation of translation",5.40
same,inhibition of inter-molecular processing of eIF4G,[4],fully inhibited
same,pIC50,"[4]; IC50, eIF4G (inter-molecular) cleavage by EV-D68 2A",6.72
same,pIC50,"[4]; IC50, inter-molecular cleavage of eIF4G by EV-D68 2A",~6.70
same,"N84T mutant self-processing, pulse chase in the presence of telaprevir",[5],not inhibited
CSCCC(NC(=O)C(C)NC(=O)C(NC(=O)OCc1ccccc1)C(C)C)C(=O)CF (stereo not drawn) [zVAM.fmk] (Cbz-Val-Ala-Met-CH2F; configuration not given here),"inhibition of VP1·2A cis cleavage, pulse chase",[6],significant inhibition
same,pIC50,"[6]; read-out: IC50, Poliovirus VP1·2A (intra-molecular) cleavage",2.80
same,pIC50,"[6]; read-out: IC50, intra-molecular poliovirus VP1·2A cleavage",~2.80
same,pIC50,[7],4.72
same,concentration of optimal effects on rhinovirus VP1·2A precursor processing and eIF4G cleavage,[8],200 µM
